Data published in paper PMC4704819, “Honey Bee Allatostatins Target Galanin/Somatostatin-Like Receptors and Modulate Learning: A Conserved Function?” (PLoS ONE, 2016).
Entries after “also recorded” stand apart in the source; their conditions may differ. Where a SMILES comes first, the peptide text is derived from it. Bridges are numbered along the chain shown (N, C = ends).

Tested on: honey bees (Apis mellifera)
Experiment: Appetitive olfactory learning (conditioning of proboscis extension reflex)
Assay type: in vivo
Details: for change of conditioned responses in last conditioning trial vs vehicle (GLM coefficient ± standard error): ~200 nl into head haemolymph 1 h before conditioning; for effect on olfactory learning performance, in words: injected into the head before conditioning, range of concentrations, vs vehicle-injected controls, Fig 9
Experimental: For behavioral experiments, bees departing from the hive (mostly foragers) were chosen as they usually show good motivation and learning ability. Each cold-anesthetized animal was introduced into a metal holder and fixed to it in order to restrain all movements of the appendages apart from those of the antennae and proboscis. Each bee was then fed with 5 μl of a sucrose solution (50% w/w in water), and its median ocellus was removed to allow injection of allatostatin into the head capsule. All bees were then placed in a dark, warm (25°C) and humidified compartment for 3 hours, before the experiments began.
The vehicle for allatostatins was a saline solution made of PBS containing the protease blocker, 1 mM PMSF (prepared from a 30mM stock solution in 100% ethanol, final concentration of ethanol 3.3%).
The allatostatins were injected into the head haemolymph after penetrating the median ocellus, either 1 hour before olfactory conditioning or sucrose responsiveness assessment, or immediately after olfactory conditioning. All injections were performed under a binocular microscope. A micromanipulator-controlled Hamilton syringe (Nanofil, equipped with a NF33BV2 needle, WPI) was used to inject approximately 200 nl of peptide solution. To make sure that the solution was properly injected, it was pushed out of the syringe so that a drop was visible and then the drop was put in contact with the haemolymph where it was quickly absorbed thanks to the respiratory movements of the bee. Any bee with excessive bleeding was discarded.
Associative conditioning of the proboscis extension reflex was used to monitor effects of allatostatin treatment on appetitive olfactory learning performance. Olfactory stimuli were prepared shortly before conditioning by inserting a small piece of filter paper soaked with 4μl of pure odorant (from Sigma-Aldrich, Lyon, France) in one of the 8 channels of a custom-made, computer-driven olfactometer (P. Arrufat, Research Center on Animal Cognition, Toulouse, France). Immediately before conditioning, the integrity of the proboscis extension reflex was checked by touching both antennae with a 50% (w/w in water) sucrose solution. Olfactory conditioning of this reflexive response was carried out following a standard protocol consisting of three paired presentations of the odor (conditioned stimulus, CS) with 50% sucrose (the unconditioned stimulus, US) separated by a 10-min interval. Each trial included a familiarization phase in which the bee was placed in the conditioning set up for 13 s before forward pairing of the CS-US. The CS (1-nonanol) was delivered to the bee through an airflow for 4 s, and the US (sucrose solution) for 3 s, with a 1 s CS-US overlap. The US was presented by gently touching the antennae to elicit the PER; as soon as the bee extended its proboscis it was allowed to lick the toothpick. This sequence was controlled by the computer-driven olfactometer.
Functional data (receptor-mediated calcium, cAMP signals and binding) were plotted and regression curves were fitted using the GraphPad Prism software (San Diego, CA). The learning data were analyzed with generalized linear effects modeling (GLM) for binomial data using the R package lme4 [67]. Response levels recorded in the last conditioning trial were used to assess the effect of treatment on learning. For 1-hour memory and generalization tests, effects of allatostatin treatment were compared for each odor tested. Generalized linear mixed effects modeling (GLMM) was also used to analyze responsiveness to sucrose, with concentration and treatment as fixed factors and the bee identity and solution presented (either sucrose or water) as random factors. […] All statistics were generated in R [68].

[1] = 10^-6M, ASTA p<0.01, ASTC p<0.05, ASTCC p<0.001

SMILES	change of conditioned responses in last conditioning trial vs vehicle (GLM coefficient ± standard error) (10^-3M, ASTCC p<0.05)	change of conditioned responses in last conditioning trial vs vehicle (GLM coefficient ± standard error) (10^-4M, ASTA p<0.01, ASTCC p<0.01)	change of conditioned responses in last conditioning trial vs vehicle (GLM coefficient ± standard error) [1]	change of conditioned responses in last conditioning trial vs vehicle (GLM coefficient ± standard error) (10^-7M, ASTCC p<0.001)	effect on olfactory learning performance, in words	effect on olfactory learning performance, in words (listed as ASTCC)	change of conditioned responses in last conditioning trial vs vehicle (GLM coefficient ± standard error) (10^-5M, ASTA p<0.05, ASTC p<0.05)	effect on olfactory learning performance, in words (listed as ASTC)
CC(C)[C@@H]1NC(=O)[C@H](C)NC(=O)[C@H](CC(N)=O)NC(=O)[C@H](Cc2ccccc2)NC(=O)[C@H](Cc2ccc(O)cc2)NC(=O)[C@@H](NC(=O)[C@H](CCCNC(=N)N)NC(=O)[C@H](Cc2c[nH]c3ccccc23)NC(=O)[C@H](Cc2ccc(O)cc2)NC(=O)[C@@H](NC(=O)[C@H](CCCNC(=N)N)NC(=O)CNC(=O)[C@H](CCCCN)NC(=O)[C@H](C)NC(=O)[C@H](CCC(N)=O)NC(=O)CN)C(C)C)CSSC[C@@H](C(=O)N[C@@H](Cc2ccccc2)C(=O)O)NC(=O)[C@H]([C@@H](C)O)NC1=O [Apime-ASTCC] (H-GQAKGRVYWRCYFNAVTCF-OH; disulfide 11-18; N-terminus assumed)	-1.04±0.45	-1.35±0.44	-1.75±0.43	-1.59±0.44	the effects of each peptide were dose-dependent	apparent at much lower doses than effects of ASTC; also recorded: significant, dose-dependent (yet not linear) decrease in the percentage of bees that learned		
CC(C)[C@@H]1NC(=O)[C@H](C)NC(=O)[C@H](CC(N)=O)NC(=O)[C@H](Cc2ccccc2)NC(=O)[C@H](C)NC(=O)[C@@H](NC(=O)[C@H](CCC(N)=O)NC(=O)[C@H](CCCCN)NC(=O)[C@H](Cc2c[nH]c3ccccc23)NC(=O)[C@H](Cc2ccc(O)cc2)NC(=O)[C@@H](N)CO)CSSC[C@@H](C(=O)N[C@@H](Cc2ccccc2)C(N)=O)NC(=O)[C@H](CO)NC1=O [Apime-ASTC] (H-SYWKQCAFNAVSCF-NH2; disulfide 6-13; N-terminus assumed)			-0.91±0.41		the effects of each peptide were dose-dependent		-0.84±0.42	significant, dose-dependent (yet not linear) decrease in the percentage of bees that learned
